Columns and labels:
Format in all cases: cell-based
Details in all cases: after 10, 20, 40 and 60 minutes at all dilutions 1:100, 1:200, 1:400, 1:800
Candida albicans = assay: Antimicrobial testing by agar dilution, Candida albicans
Method: (§1) The antimicrobial properties of the ethyl [4,4-bis(4-bromophenyl)-2,5-dioxoimidazolidin-1-yl]acetate was studied by the method of agar dilution. Test solutions of each compound was prepared in concentration of 1% using dimethylformamide as a solvent then they are diluted in physiological solution to obtain the final experimental dilutions 1:100, 1:200, 1:400, 1:800. The effect of these substances are compared with furacillin in a controllable study. The testing microbes used were gram positive bacteria Staphylococcus aureus, gram negative bacteria Escherichia coli, Pseudomonas aeruginosa and Candida albicans fungi were taken. The experiments used for this survey were meat-pentonlu agar (EPA) for cultivation of bacteria and Saburo environment for fungi. Each experiment used 1 ml of test solution on each plate 500 min. Add 2 drops of emulsified with microbes feel. All experimental samples were taken from the agar after 10, 20, 40, 60 minutes in the environment on the basis of Patrk planted. Bacteria were cultivated at a temperature of 37° C. for 1 day and the mushroom was kept in a thermostat for […] at a temperature of 28° C. Then the results were checked.

Pseudomonas aeruginosa = assay: Antimicrobial testing by agar dilution, Pseudomonas aeruginosa
Method: as §1

Escherichia coli = assay: Antimicrobial testing by agar dilution, Escherichia coli
Method: as §1

Staphylococcus aureus = assay: Antimicrobial testing by agar dilution, Staphylococcus aureus
Method: as §1

Measured: inhibition activity

CCOC(=O)CN1C(=O)NC(c2ccc(Br)cc2)(c2ccc(Br)cc2)C1=O [ethyl [4,4-bis(4-bromophenyl)-2,5-dioxoimidazolidin-1-yl]acetate]
higher inhibition activity: Candida albicans | Pseudomonas aeruginosa | Escherichia coli | Staphylococcus aureus

— patent publication US11993575B1, “Ethyl [4,4-bis(4-bromophenyl)-2,5-dioxoimidazolidin-1-yl]acetate as an antimicrobial compound” (KING FAISAL UNIVERSITY, priority 2023, dated 2024)
